Experimental findings from ChEMBL document CHEMBL1201862, “PubChem BioAssay data set” (2004) are described below.

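Each compound was tested at five concentrations against cells in 96-well plates for 48 hours. At the GI50, growth is halved.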 Calls of active or inactive are those of the source. Rule as the data show it: active = GI50 up to about 1.1 µM and inactive = higher.

Some test systems named below: COLO 205; EKVX; HCT-15; HT-29; IGROV-1; Malme-3M; OVCAR-3; OVCAR-8; RXF 393; SF-268; SF-539; SK-MEL-28; SK-OV-3; SN12C; SW-620; TK-10; U-251; K562; OVCAR-4; HOP-62.
Holding throughout (assay): NCI tumour cell line growth inhibition, 48 h

Consider `COCCOCOC(C)(C)[C@H](CCO)O[Si](c1ccccc1)(c1ccccc1)C(C)(C)C`, for which the GI50 in the test with COLO 205 is 15.9 µM (inactive); with EKVX, 13.5 µM (inactive); in the test on HCT-15, 4.68 µM; in the test on HT-29, 8.61 µM (inactive); in the test on IGROV-1 it was 9.14 µM (inactive); with Malme-3M, 14.3 µM (inactive). Further, the GI50 with OVCAR-3 was 10.2 µM (inactive); in the test with OVCAR-8, 10.4 µM (inactive); in the test with RXF 393, 5.3 µM (inactive); in the test with SF-268 it was 7.13 µM (inactive); in the test with SF-539, 14.1 µM (inactive); with SK-MEL-28, 14.9 µM (inactive). Further, the GI50 in the test with SK-OV-3 was 12.5 µM (inactive); in the test on SN12C it was 3.34 µM (inactive); with SW-620 it was 11.2 µM (inactive); in the test on TK-10, 10.9 µM (inactive); in the test on U-251, 11 µM (inactive).

Take `CCCCN(CCCC)c1ccc(/N=N/c2ccc(S(=O)(=O)O)cc2)cc1`: the GI50 was 18.7 µM (inactive) with COLO 205; 39.1 µM (inactive) in the test on EKVX; 17.2 µM with HCT-15; 26.4 µM (inactive) with HT-29; 14.7 µM (inactive) in the test with IGROV-1; 26.9 µM (inactive) with K562. In addition, the GI50 with OVCAR-3 was 30.1 µM (inactive); in the test on OVCAR-4, 17.8 µM (inactive); in the test with OVCAR-8 it was 22 µM (inactive); in the test with RXF 393, 14.4 µM (inactive); in the test on SF-268, > 100 µM (inactive); in the test on SF-539, 16.7 µM (inactive). The GI50 is 81.3 µM (inactive) with SK-MEL-28; 25.5 µM (inactive) in the test on SK-OV-3; 25.4 µM (inactive) with SN12C; 33 µM (inactive) in the test on SW-620; 67.8 µM (inactive) in the test with TK-10; 32.3 µM (inactive) in the test on U-251.

For the molecule `O=C(NN1C(=O)CS(=O)(=O)C1c1ccc(C(F)(F)F)cc1)c1ccncc1` (stereo not drawn), the GI50 is > 100 µM (inactive) with COLO 205; over 100 µM in the test on HCT-15; > 100 µM (inactive) in the test on HOP-62; > 100 µM (inactive) in the test with HT-29; > 100 µM (inactive) in the test with Malme-3M; > 100 µM (inactive) with OVCAR-4. The GI50 in the test on RXF 393, in the test on SF-268, in the test with SK-MEL-28, in the test with SK-OV-3, in the test with SN12C and in the test with SW-620 was > 100 µM (inactive) each time. Also, the GI50 in the test with TK-10 and in the test with U-251 was > 100 µM (inactive) each time.

On to `O=C(Nc1nccs1)c1cc(C2=CC=CC([N+](=O)[O-])C=C2)nc(S)n1` (stereo not drawn), for which the GI50 is > 100 µM (inactive) with COLO 205; > 100 µM (inactive) in the test on EKVX; over 100 µM in the test with HCT-15; > 100 µM (inactive) with HOP-62; > 100 µM (inactive) in the test with HT-29; > 100 µM (inactive) in the test with IGROV-1. The GI50 with K562, in the test with Malme-3M, with OVCAR-3, in the test with OVCAR-8, in the test with RXF 393 and in the test on SF-268 was > 100 µM (inactive) in each case. Further, the GI50 in the test with SF-539, in the test with SK-MEL-28, with SK-OV-3, with SN12C, in the test with SW-620 and with TK-10 was > 100 µM (inactive) throughout. In addition, the GI50 with U-251 is > 100 µM (inactive).

Consider `CN1CCN(Cn2nc(COc3ccc(Cl)cc3)n(/N=C/c3ccc(-c4ccc(Cl)cc4Cl)o3)c2=S)CC1`, for which the GI50 in the test with EKVX is 14.5 µM (inactive); in the test on HCT-15, 18.6 µM; in the test on HOP-62 it was 5 µM (inactive); in the test with HT-29, 3.7 µM (inactive); in the test with IGROV-1, 10.6 µM (inactive); with K562, 15.2 µM (inactive). Moreover, the GI50 in the test on OVCAR-3 was 14.1 µM (inactive); with OVCAR-4 it was 3.05 µM (inactive); in the test with OVCAR-8 it was 4.89 µM (inactive); in the test with RXF 393 it was 2.33 µM (inactive); in the test on SF-268, 3.95 µM (inactive); with SF-539, 26.4 µM (inactive). The GI50 with SK-MEL-28 is 13.9 µM (inactive); in the test with SK-OV-3, 15.7 µM (inactive); in the test on SW-620, 5.06 µM (inactive); in the test on TK-10 it was 14.5 µM (inactive); with U-251 it was 10.9 µM (inactive).

For the molecule `CN1C(=O)NC(=O)/C(=C\Nc2ncccn2)C1=O`, the GI50 in the test with COLO 205 is > 100 µM (inactive); in the test with EKVX, > 100 µM (inactive); with HCT-15 it was over 100 µM; with HOP-62, > 100 µM (inactive); in the test on HT-29, > 100 µM (inactive); in the test with IGROV-1 it was > 100 µM (inactive). Moreover, the GI50 in the test on Malme-3M, in the test on OVCAR-3, in the test with OVCAR-4, in the test with OVCAR-8, in the test with SF-268 and in the test on SF-539 was > 100 µM (inactive) each time. Also, the GI50 in the test with SK-MEL-28, with SK-OV-3, in the test with SN12C, with SW-620, with TK-10 and with U-251 was > 100 µM (inactive) throughout.

`O=C(OC(=O)n1ccc2ccccc21)n1ccc2ccccc21`: the GI50 with COLO 205 is > 100 µM (inactive); in the test on EKVX it was > 100 µM (inactive); in the test on HCT-15, over 100 µM; in the test with HOP-62, > 100 µM (inactive); in the test with HT-29, > 100 µM (inactive); in the test on IGROV-1, > 100 µM (inactive). The GI50 in the test with K562, in the test with OVCAR-3, with OVCAR-4, in the test on OVCAR-8, in the test on RXF 393 and in the test on SF-268 was > 100 µM (inactive) each time. The GI50 with SF-539, with SK-MEL-28, with SK-OV-3, in the test on SN12C, in the test with SW-620 and in the test on U-251 was > 100 µM (inactive) in each case.

Regarding `COc1cc2c(cc1OC)C(Cc1c3ccccc3cc3ccccc13)N(C)CC2` (stereo not drawn), the GI50 in the test with COLO 205 was 11.2 µM (inactive); in the test with EKVX, 25.6 µM (inactive); with HCT-15, 30.2 µM; in the test on HOP-62 it was 21.4 µM (inactive); with HT-29, 13.5 µM (inactive); in the test with IGROV-1 it was 20.7 µM (inactive). For the same molecule, the GI50 was 12.5 µM (inactive) with K562; 27.7 µM (inactive) with OVCAR-3; 30.7 µM (inactive) in the test with OVCAR-4; 26.5 µM (inactive) in the test on OVCAR-8; 10.5 µM (inactive) with RXF 393; 29 µM (inactive) in the test with SF-268. The GI50 with SF-539 was 19.5 µM (inactive); in the test with SK-MEL-28, 20.2 µM (inactive); in the test with SK-OV-3 it was 22.4 µM (inactive); with SN12C, 42 µM (inactive); in the test on SW-620, 27 µM (inactive); in the test with U-251 it was 16.9 µM (inactive).

Consider `CC1(C)CCc2ccc(OCCC(=O)O)cc2O1`, for which the GI50 in the test on COLO 205 is > 100 µM (inactive); in the test with EKVX, > 100 µM (inactive); in the test with HCT-15, over 100 µM; in the test on HOP-62, > 100 µM (inactive); with HT-29, > 100 µM (inactive); in the test on IGROV-1 it was > 100 µM (inactive). Also, the GI50 with K562, in the test with Malme-3M, in the test with OVCAR-3, with OVCAR-4, in the test on OVCAR-8 and in the test with SF-268 was > 100 µM (inactive) each time. For the same molecule, the GI50 in the test on SF-539, in the test with SK-OV-3, in the test with SN12C, with SW-620 and with U-251 was > 100 µM (inactive) each time.

For `CCOC(=O)/C=C(/C)Nc1nc2c(c(C(=O)OC)c1C#N)CCCC2`, the GI50 is > 100 µM (inactive) with COLO 205; 86.1 µM (inactive) in the test on EKVX; over 100 µM in the test with HCT-15; > 100 µM (inactive) in the test with HOP-62; > 100 µM (inactive) in the test on HT-29; > 100 µM (inactive) in the test on IGROV-1. Further, the GI50 in the test with K562 is > 100 µM (inactive); with Malme-3M, > 100 µM (inactive); in the test on OVCAR-4 it was 44.7 µM (inactive); in the test with OVCAR-8 it was > 100 µM (inactive); in the test on RXF 393, > 100 µM (inactive); with SF-268 it was > 100 µM (inactive). In addition, the GI50 in the test on SK-MEL-28, in the test on SK-OV-3, in the test on SN12C, with SW-620, with TK-10 and with U-251 was > 100 µM (inactive) in each case.

Turning to `CCOc1cc(C(=O)O)c2c(ccc3ccc(OC)c(OC)c32)c1OC`, the GI50 is > 100 µM (inactive) with COLO 205; > 100 µM (inactive) in the test with EKVX; over 100 µM with HCT-15; > 100 µM (inactive) with HOP-62; > 100 µM (inactive) in the test with HT-29; > 100 µM (inactive) in the test with IGROV-1. The GI50 with K562, in the test with Malme-3M, in the test with OVCAR-3, in the test with OVCAR-4, in the test with OVCAR-8 and in the test with RXF 393 was > 100 µM (inactive) each time. Also, the GI50 in the test on SF-268, in the test with SK-MEL-28, in the test with SK-OV-3, with SN12C, in the test on SW-620 and with TK-10 was > 100 µM (inactive) each time. Also, in the test on U-251, the GI50 is > 100 µM (inactive).
